Source: ChEMBL document CHEMBL4325872, “Identification of Selective Dual ROCK1 and ROCK2 Inhibitors Using Structure-Based Drug Design” (J Med Chem, 2018)
Converted amounts (≈) assume the structure as drawn.

What was measured:
[1] = in vitro; conditions: PAMPA
[2] = physchem

For `COc1cccc([C@@H](C)NC(=O)c2ccc(-c3ccncn3)cc2N2CC[C@@H](CN)C2)c1`, the Papp [1] was 1.4 ×10⁻⁶ cm/s and the solubility [2] was 63.9 µM (≈ 27.6 µg/mL).
For `COc1cccc([C@@H](C)NC(=O)c2ccc(-c3ccncn3)cc2N2CCC[C@H](CN)C2)c1`, the Papp [1] was 2.6 ×10⁻⁶ cm/s and the solubility [2] was 65.5 µM (≈ 29.2 µg/mL).
Work on `COc1cccc([C@@H](C)NC(=O)c2ccc(-c3ccncn3)cc2N2CCC[C@@H](CN)C2)c1` yielded a Papp [1] of 2.5 ×10⁻⁶ cm/s and a solubility [2] of 51.2 µM (≈ 22.8 µg/mL).
